Drawing on patent publication US8809233B2, “Ternary herbicidal compositions comprising aminopyralid and imazamox” (BASF SE, priority 2008, dated 2014), this text covers inhibition for 4 molecules.

What all share (type): in vivo
Assay [1] deals with Capsella bursa-pasturis (CAPBP). Put plainly: greenhouse post-emergence herbicidal activity on CAPBP. Here is the method:
(§1) The test plants have been seeded, separately for each species, in plastic containers in sandy loamy soil containing 5% of organic matter.
(§2) For the post emergence treatment, the plants were first grown to the 2 leaf station (GS 12). Here, the herbicidal compositions were suspended or emulsified in water as distribution medium and sprayed using finely distributing nozzels.
(§3) The plants have been cultivated due to there individual requirements at 10-25° C. and 20-35° C. The plants were irrigated due to there necessity.
(§4) The respective herbicides A and/or safener were formulated as 10% by weight strength suspension concentrate and introduced to the spray liquor with the amount of solvent system used for applying the active compound. Herbicide B and/or safener were used as commercially available formulations and introduced to the spray liquor with the amount of solvent system used for applying the active compound. In the examples, the solvent used was water.
(§5) In the following experiments, the herbicidal activity for the individual herbicide compounds (solo and mixture applications), the herbicidal succession was assessed 14 days after treatment (DAT).
(§6) The evaluation for the damage on undesired weeds caused by the chemical compositions was carried out using a scale from 0 to 100%, compared to the untreated control plants. Here, 0 means no damage and 100 means complete destruction of the plants.
(§7) The value E, which is to be expected if the activity of the individual compounds is just additive, was calculated using the method of S. R. Colby (1967) “Calculating synergistic and antagonistic responses of herbicide combinations”, weeds 15, p. 22ff.
(§8) [formula] where: X=effect in percent using herbicide A at an application rate a; Y=effect in percent using herbicide B at an application rate b; Z=effect in percent using herbicide C at an application rate c; E=expected effect (in %) of A+B+C at application rates a+b+c
(§9) Tables 1 to 2 relate to the herbicidal activity, in greenhouse trials, of the individual actives and the combination in post-emergence application 14 DAT.

In assay [2] the test system is Matricaria inodora (MATIN). In words: greenhouse post-emergence herbicidal activity on MATIN. Conditions: Tripleurospermum inodorum. The protocol: as §1, §2, §3, §4, §5, §6, §7, §8, §9
The subject of assay [3] is Papaver rhoeas (PAPRH). Put plainly: greenhouse post-emergence herbicidal activity on PAPRH. The protocol:
as §1, §2, §3, §4, §5, §6, §7, §8, §9

Assay [4] has as its system Mercurialis annua (MERAN). In words: greenhouse post-emergence herbicidal activity on MERAN. The protocol:
as §1, §2, §3, §4, §5, §6, §7, §8, §9

Assay [5] has as its system Thlaspi arvense (THLAR). Put plainly: greenhouse post-emergence herbicidal activity on THLAR. The protocol:
as §1, §2, §3, §4, §5, §6, §7, §8, §9

The test system of assay [6] is Viola arvensis (VIOAR). In words: greenhouse post-emergence herbicidal activity on VIOAR. The protocol:
as §1, §2, §3, §4, §5, §6, §7, §8, §9

Assay [7] deals with Matricaria chamomilla (MATCH). In words: greenhouse post-emergence herbicidal activity on MATCH. Conditions: 672 h, read-out: % activity 28 DAT. The protocol:
as §1, §2, §3
The respective herbicides A and/or safener were formulated as 10% by weight strength suspension concentrate and introduced to the spray liquor with the amount of solvent system used for applying the active compound. Herbicide B and/or safener were used as commercially available formulations and introduced to the spray liquor with the amount of solvent system used for applying the active compound. In the examples, the solvent used was water. […]
The evaluation for the damage on undesired weeds caused by the chemical compositions was carried out using a scale from 0 to 100%, compared to the untreated control plants. […]
The value E, which is to be expected if the activity of the individual compounds is just additive, was calculated using the method of S. R. Colby (1967) “Calculating synergistic and antagonistic responses of herbicide combinations”, weeds 15, p. […]

Like-named read-outs stand apart in the source and are kept apart here.

Take `O=C(O)c1nc(Cl)ccc1Cl` [clopyralid]: the inhibition at 30 g/ha in assay [1] (Table 2, CAPBP, solo application, use rate 30 g ai/ha) turned out to be 0%. In addition, in assay [1] (Table 2, CAPBP, solo application, use rate 120 g ai/ha), the inhibition at 120 g/ha was determined as 10%.

As to `COCc1cnc(C2=NC(C)(C(C)C)C(=O)N2)c(C(=O)O)c1` (racemic) [imazamox, 2-[(RS)-4-isopropyl-4-methyl-5-oxo-2-imidazolin-2-yl]-5-methoxymethylnicotinic acid], the inhibition at 20 g/ha in assay [1] (CAPBP, solo application, use rate 20 g ai/ha) came to 90%; in assay [2] (MATIN, solo application, use rate 20 g ai/ha), 65%; in assay [3] (PAPRH, solo application, use rate 20 g ai/ha), 35%; in assay [4] (MERAN, solo application, use rate 20 g ai/ha), 90%; in assay [5] (THLAR, solo application, use rate 20 g ai/ha), 90%; in assay [6] (VIOAR, solo application, use rate 20 g ai/ha) it was 0%. The inhibition at 10 g/ha in assay [1] (Table 2, CAPBP, solo application, use rate 10 g ai/ha (imazamox), read-out: % activity) was determined as 80%.

In the case of `Nc1cc(Cl)nc(C(=O)O)c1Cl` [aminopyralid, 4-amino-3,6-dichloropyridine-2-carboxylic acid], the inhibition at 2.5 g/ha in assay [1] (read-out: % activity) amounted to 0%; in assay [2] (read-out: % activity) it was 35%; in assay [3] (read-out: % activity), 0%; in assay [4] (read-out: % activity) it was 70%; in assay [7], 40%; in assay [5] (read-out: % activity), 30%. Further, in assay [6] (read-out: % activity), the inhibition at 2.5 g/ha is 10%. Besides, the inhibition at 5 g/ha in assay [1] (read-out: % activity) was 10%; in assay [2] (read-out: % activity), 60%; in assay [3] (read-out: % activity), 15%; in assay [7] it was 75%; in assay [6] (read-out: % activity) it was 10%. In addition, in assay [1] (read-out: % activity), the inhibition at 10 g/ha is 25%.

With `Cc1cccc(C)c1N(Cn1cccn1)C(=O)CCl` [metazachlor], the inhibition at 187 g/ha in assay [1] (CAPBP, solo application, use rate 187 g ai/ha) worked out at 0%; in assay [2] (MATIN, solo application, use rate 187 g ai/ha), 60%; in assay [3] (PAPRH, solo application, use rate 187 g ai/ha), 30%; in assay [4] (MERAN, solo application, use rate 187 g ai/ha), 15%; in assay [5] (THLAR, solo application, use rate 187 g ai/ha), 0%; in assay [6] (VIOAR, solo application, use rate 187 g ai/ha), 15%.
